Data reported in US12083196B2, “Personal cleansing compositions with surfactants for increased foam performance” (ECOLAB USA INC., priority 2020, dated 2024).

Assay: SITA Foam Analyzer foam creation
Assay type: physicochemical
Source text: The reagents used below include: • Alpha-Step® PC-48 is a C10-16 sodium methyl 2-sulfolaurate and disodium 2-sulfolaurate available from Stepan; • Stepan-Mild® L3 is a predominantly C12 reaction product of lauryl alcohol and lactic acid available from Stepan; • SLES is sodium laureth sulfate; • Cola® Teric is an amphoteric sultaine available from Colonial Chemical, Inc.; • Glucopon® […] is an alkyl polyglycoside available from BASF Corporation; • Suga® Nate is a sodium laurylglucosides hydrooxypropylsulfonate available from Colonial Chemicals, Inc; • Lathanol® LAL is a sodium lauryl sulfoacetate available from Stepan. All experiments ran through the SITA Foam Analyzer were as follows: Equipment: • 1) Foaming Apparatus • 2) SITA Software Reagents: • 1) 250 mL of each solution • 2) DI water Preparation: Equipment is prepared by turning the water bath on with ample time to warm up before running tests. Adjust water bath to desired temperature. Quality Assurance: Run a positive and negative control for every experiment. Ensure equipment is clean and free from any residual surfactant chemistry beforehand. In each experiment set, proper differentiation between chemistries can be seen if at least one of the tested chemistries has an “S” curve that depicts a change in the initial foam building and the lathering step. Experimental Procedure: • 1) Prepare water bath • 2) Open the “SITA-foam” software on the computer. […] Foam Generation • i. Series Count (cycles): number of measurement replicates (3-triplicate) • ii. Fill With: Volume of sample liquid (250 mL for each test) • iii. Stir Count: Number of stirrings for each test (70). This is also the number of measurements for each cycle. • iv. Stir Time: Stirring duration of sample (10 sec) • v. Revolution: RPM o the stirrer (900 RMP) • b. Cleansing • i. Click the shower icon to activate the automatic cleansing and rinsing function. The vessel will be cleaned automatically after each cycle of measurements. • ii. Normal cleansing will rinse out the vessel many times. Small cleansing indicates a faster cleansing process. All above parameters can be saved • 5) After setting the parameters, click on “Start Measurement” which is the green “Play” button to proceed with the experiment • 6) After each cycle of experiments automatic cleansing and rinsing is done in preparation for the next cycle of measurements as long as the instrument is connected to tap water or a cleansing liquid reservoir • 7) Each click on the green “Start Measurement” icon opens a new window. The current sample measurement results are all in the same project folder. To rename sample measurement files, right click on the open sample window, and click “save” to rename your sample file • 8) If an error occurs at any point with your sample, the measurement reading can be stopped by clicking the red square “Stop icon” or by pressing the large red button on the machine • 9) Organize the graph generated with the icons in the fourth section of the tool bar: create new plot, add/remove data from plot, change axis properties, and view properties. Click on the “Create new plot” icon to view the plot after the experiment is done or if it is still running. Right click to rename the plot, insert or remove the plot and display the foam buildup, foam decay, or both Establishing initial foaming of the single surfactants is important to establish baselines for comparison for the combinations of various surfactants. To establish the foaming properties of single surfactants, a high amount of each surfactant was analyzed in the SITA Foam Analyzer as described above. The final concentration of each surfactant in solution was 1%. The surfactants tested were sodium lauryl sulfate (SLES), a betaine, Cola® Teric CBS, Glucopon® […], Lathanol® LAL, and Suga® Nate 160NC. […] The compositions were tested for foaming using the SITA Foam Analyzer as described above. […]

sodium laureth sulfate [SLES]
ability to reach saturation of foam (in words) (SLES 0.2 wt. %, second surfactant 0.005 wt. %, FIG. 3): unable to reach saturation | foam height (cycle 0, SLES 0.2 wt. %, second surfactant 0.005 wt. %): 0 mL | foam height (cycle 1, SLES 0.2 wt. %, second surfactant 0.005 wt. %): 147.3 mL | foam height (cycle 2, SLES 0.2 wt. %, second surfactant 0.005 wt. %): 161 mL | foam height (cycle 3, SLES 0.2 wt. %, second surfactant 0.005 wt. %): 168.3 mL | foam height (cycle 4, SLES 0.2 wt. %, second surfactant 0.005 wt. %): 172.67 mL | foam height (cycle 5, SLES 0.2 wt. %, second surfactant 0.005 wt. %): 174 mL | foam height (cycle 6, SLES 0.2 wt. %, second surfactant 0.005 wt. %): 177 mL | foam height (cycle 7, SLES 0.2 wt. %, second surfactant 0.005 wt. %): 185.67 mL | foam height (cycle 8, SLES 0.2 wt. %, second surfactant 0.005 wt. %): 188.3 mL | foam height (cycle 9, SLES 0.2 wt. %, second surfactant 0.005 wt. %): 193.67 mL | foam height (cycle 10, SLES 0.2 wt. %, second surfactant 0.005 wt. %): 200 mL | foam height (cycle 11, SLES 0.2 wt. %, second surfactant 0.005 wt. %): 202.3 mL | foam height (cycle 12, SLES 0.2 wt. %, second surfactant 0.005 wt. %): 204.67 mL | foam height (cycle 13, SLES 0.2 wt. %, second surfactant 0.005 wt. %): 210 mL | foam height (cycle 14, SLES 0.2 wt. %, second surfactant 0.005 wt. %): 213 mL | foam height (cycle 15, SLES 0.2 wt. %, second surfactant 0.005 wt. %): 217 mL | foam height (cycle 16, SLES 0.2 wt. %, second surfactant 0.005 wt. %): 219.3 mL | foam height (cycle 17, SLES 0.2 wt. %, second surfactant 0.005 wt. %): 221.3 mL | foam height (cycle 18, SLES 0.2 wt. %, second surfactant 0.005 wt. %): 222.67 mL | foam height (cycle 19, SLES 0.2 wt. %, second surfactant 0.005 wt. %): 224.3 mL | foam height (cycle 20, SLES 0.2 wt. %, second surfactant 0.005 wt. %): 227.67 mL | foam height (cycle 21, SLES 0.2 wt. %, second surfactant 0.005 wt. %): 228.3 mL | foam height (cycle 22, SLES 0.2 wt. %, second surfactant 0.005 wt. %): 231 mL | foam height (cycle 23, SLES 0.2 wt. %, second surfactant 0.005 wt. %): 232.67 mL | foam height (cycle 24, SLES 0.2 wt. %, second surfactant 0.005 wt. %): 234.3 mL | foam height (cycle 25, SLES 0.2 wt. %, second surfactant 0.005 wt. %): 235.3 mL | foam height (cycle 26, SLES 0.2 wt. %, second surfactant 0.005 wt. %): 237 mL | foam height (cycle 27, SLES 0.2 wt. %, second surfactant 0.005 wt. %): 237.67 mL | foam height (cycle 28, SLES 0.2 wt. %, second surfactant 0.005 wt. %): 239 mL | foam height (cycle 29, SLES 0.2 wt. %, second surfactant 0.005 wt. %): 239.67 mL | foam height (cycle 30, SLES 0.2 wt. %, second surfactant 0.005 wt. %): 240 mL | foam height (cycle 31, SLES 0.2 wt. %, second surfactant 0.005 wt. %): 240.67 mL | foam height (cycle 32, SLES 0.2 wt. %, second surfactant 0.005 wt. %): 241.3 mL | foam height (cycle 33, SLES 0.2 wt. %, second surfactant 0.005 wt. %): 242.3 mL | foam height (cycle 34, SLES 0.2 wt. %, second surfactant 0.005 wt. %): 243 mL | foam height (cycle 35, SLES 0.2 wt. %, second surfactant 0.005 wt. %): 243 mL | foam height (cycle 36, SLES 0.2 wt. %, second surfactant 0.005 wt. %): 243.67 mL | foam height (cycle 37, SLES 0.2 wt. %, second surfactant 0.005 wt. %): 244 mL | foam height (cycle 38, SLES 0.2 wt. %, second surfactant 0.005 wt. %): 245.3 mL | foam height (cycle 39, SLES 0.2 wt. %, second surfactant 0.005 wt. %): 245 mL | foam height (cycle 40, SLES 0.2 wt. %, second surfactant 0.005 wt. %): 245 mL | foam height (cycle 41, SLES 0.2 wt. %, second surfactant 0.005 wt. %): 245.67 mL | foam height (cycle 42, SLES 0.2 wt. %, second surfactant 0.005 wt. %): 246 mL | foam height (cycle 43, SLES 0.2 wt. %, second surfactant 0.005 wt. %): 246 mL | foam height (cycle 44, SLES 0.2 wt. %, second surfactant 0.005 wt. %): 246.67 mL | foam height (cycle 45, SLES 0.2 wt. %, second surfactant 0.005 wt. %): 246.67 mL | foam height (cycle 46, SLES 0.2 wt. %, second surfactant 0.005 wt. %): 246.67 mL | foam height (cycle 47, SLES 0.2 wt. %, second surfactant 0.005 wt. %): 247 mL | foam height (cycle 48, SLES 0.2 wt. %, second surfactant 0.005 wt. %): 247.67 mL | foam height (cycle 49, SLES 0.2 wt. %, second surfactant 0.005 wt. %): 247.67 mL | foam height (cycle 50, SLES 0.2 wt. %, second surfactant 0.005 wt. %): 248 mL | foam height (cycle 51, SLES 0.2 wt. %, second surfactant 0.005 wt. %): 248.67 mL | foam height (cycle 52, SLES 0.2 wt. %, second surfactant 0.005 wt. %): 248.67 mL | foam height (cycle 53, SLES 0.2 wt. %, second surfactant 0.005 wt. %): 248.67 mL | foam height (cycle 54, SLES 0.2 wt. %, second surfactant 0.005 wt. %): 250 mL | foam height (cycle 55, SLES 0.2 wt. %, second surfactant 0.005 wt. %): 250.3 mL | foam height (cycle 56, SLES 0.2 wt. %, second surfactant 0.005 wt. %): 251.3 mL | foam height (cycle 57, SLES 0.2 wt. %, second surfactant 0.005 wt. %): 250.3 mL | foam height (cycle 58, SLES 0.2 wt. %, second surfactant 0.005 wt. %): 250 mL | foam height (cycle 59, SLES 0.2 wt. %, second surfactant 0.005 wt. %): 251 mL | foam height (cycle 60, SLES 0.2 wt. %, second surfactant 0.005 wt. %): 251.3 mL | foam height (cycle 61, SLES 0.2 wt. %, second surfactant 0.005 wt. %): 251.67 mL | foam height (cycle 62, SLES 0.2 wt. %, second surfactant 0.005 wt. %): 252.67 mL | foam height (cycle 63, SLES 0.2 wt. %, second surfactant 0.005 wt. %): 252 mL | foam height (cycle 64, SLES 0.2 wt. %, second surfactant 0.005 wt. %): 253 mL | foam height (cycle 65, SLES 0.2 wt. %, second surfactant 0.005 wt. %): 253.67 mL | foam height (cycle 66, SLES 0.2 wt. %, second surfactant 0.005 wt. %): 253.67 mL | foam height (cycle 67, SLES 0.2 wt. %, second surfactant 0.005 wt. %): 253.67 mL | foam height (cycle 68, SLES 0.2 wt. %, second surfactant 0.005 wt. %): 253 mL | foam height (cycle 69, SLES 0.2 wt. %, second surfactant 0.005 wt. %): 253 mL | foam height (cycle 70, SLES 0.2 wt. %, second surfactant 0.005 wt. %): 254 mL | onset of foam saturation (in words) (single surfactant, 1%, FIG. 1): taking the longest to reach saturation
